Like-named read-outs stand apart in the source and are kept apart here.
Target: T1, IRAK4 (Homo sapiens, UniProt Q9NWZ3)
T1 construct: Degradation of IRAK4 in OCI-LY10 was quantitatively measured using Meso Scale Discovery technology; endogenous in cells; host or cells: OCI-LY10
T1 sequence (Q9NWZ3 1-460): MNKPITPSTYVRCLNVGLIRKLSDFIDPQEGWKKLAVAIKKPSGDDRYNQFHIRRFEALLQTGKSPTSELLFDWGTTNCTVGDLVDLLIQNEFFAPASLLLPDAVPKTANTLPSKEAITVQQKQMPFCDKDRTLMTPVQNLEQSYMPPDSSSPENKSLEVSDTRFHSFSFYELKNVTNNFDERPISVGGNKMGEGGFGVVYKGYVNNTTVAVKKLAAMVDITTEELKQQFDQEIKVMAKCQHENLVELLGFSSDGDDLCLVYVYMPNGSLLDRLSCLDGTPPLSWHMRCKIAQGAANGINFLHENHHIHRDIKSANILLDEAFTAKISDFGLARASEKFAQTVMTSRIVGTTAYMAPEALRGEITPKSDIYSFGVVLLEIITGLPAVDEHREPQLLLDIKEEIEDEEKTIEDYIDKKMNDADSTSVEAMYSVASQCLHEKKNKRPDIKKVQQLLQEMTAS
Assay: IRAK4 MSD Degradation in OCI-LY10
Assay type: cell-based
Conditions: OCI-LY10 cells, MSD
How it was run: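 DC50, from a three-parameter logistic fit and reported as letter bins A (<0.01 μM), B, C, D (>0.2 μM or not tested), reflects IRAK4 loss measured by MSD electrochemiluminescence in OCI-LY10 lysates. Treatment: 8 doses, 1:3 steps, top 1 to 10 μM, 4 to 24 h, 37 °C.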

[1] = 4 hrs incubation, read-out: IRAK4 degradation in OCI-LY10 at 4 hrs: DC50
[2] = 24 hrs incubation, read-out: IRAK4 degradation in OCI-LY10 at 24 hrs: DC50

SMILES | DC50 [1] [nM] | DC50 [2] [nM]
Cn1c(=O)n(C2CCC(=O)NC2=O)c2cccc(C#CCN3CCN(C[C@H]4CC[C@H](n5cc(NC(=O)c6cnn7ccc(N8C[C@H]9C[C@@H]8CO9)nc67)c(F)n5)CC4)CC3)c21 (stereo partly shown) [I-281] | > 200 | > 200
CC1CCN(c2ccn3ncc(C(=O)Nc4cn([C@H]5CC[C@H](CN6CCN(CC#Cc7cccc8c7n(C)c(=O)n8C7CCC(=O)NC7=O)CC6)CC5)nc4C(F)F)c3n2)CC1 (stereo partly shown) [I-282] | > 200 | 10 to 100
Cn1c(=O)n(C2CCC(=O)NC2=O)c2cccc(C#CCN3CCN(C[C@H]4CC[C@H](n5cc(NC(=O)c6cnn7ccc(N8CCCCCC8)nc67)c(C(F)F)n5)CC4)CC3)c21 (stereo partly shown) [I-283] | > 200 | 10 to 100
Cn1c(=O)n(C2CCC(=O)NC2=O)c2cccc(C#CCN3CCN(C[C@H]4CC[C@H](n5cc(NC(=O)c6cnn7cccnc67)c(C(C)(C)O)n5)CC4)CC3)c21 (stereo partly shown) [I-284] | > 200 | > 200
Cn1c(=O)n(C2CCC(=O)NC2=O)c2cccc(C#CCN3CCN(C[C@H]4CC[C@H](n5cc(NC(=O)c6cnn7ccc(N8CCC8)nc67)c(C(C)(C)O)n5)CC4)CC3)c21 (stereo partly shown) [I-285] | > 200 | > 200
Cn1c(=O)n(C2CCC(=O)NC2=O)c2cccc(C#CCN3CCN(C[C@H]4CC[C@H](n5cc(NC(=O)c6cnn7ccc(N8CCOC9(CC9)C8)nc67)c(C(F)F)n5)CC4)CC3)c21 (stereo partly shown) [I-286] | > 200 | < 10
Cn1c(=O)n(C2CCC(=O)NC2=O)c2cccc(C#CCN3CCN(C[C@H]4CC[C@H](n5cc(NC(=O)c6cnn7ccc(N8CCOC9(CCC9)C8)nc67)c(C(F)F)n5)CC4)CC3)c21 (stereo partly shown) [I-287] | > 200 | < 10
CC1CN(c2ccn3ncc(C(=O)Nc4cn([C@H]5CC[C@H](CN6CCN(CC#Cc7cccc8c7n(C)c(=O)n8C7CCC(=O)NC7=O)CC6)CC5)nc4C(F)F)c3n2)CCO1 (stereo partly shown) [I-288] | > 200 | > 200
CC1CN(c2ccn3ncc(C(=O)Nc4cn([C@H]5CC[C@H](CN6CCN(CC#Cc7cccc8c7n(C)c(=O)n8C7CCC(=O)NC7=O)CC6)CC5)nc4C(F)F)c3n2)CC(C)O1 (stereo partly shown) [I-289] | > 200 | > 200
Cn1c(=O)n(C2CCC(=O)NC2=O)c2cccc(C#CCN3CCN(C[C@H]4CC[C@H](n5cc(NC(=O)c6cnn7ccc(N8C[C@H]9CC[C@@H](C8)O9)nc67)c(C(F)F)n5)CC4)CC3)c21 (stereo partly shown) [I-290] | > 200 | < 10
Cn1c(=O)n(C2CCC(=O)NC2=O)c2cccc(C#CCN3CCN(C[C@H]4CC[C@H](n5cc(NC(=O)c6cnn7ccc(N8CCCOCC8)nc67)c(C(F)F)n5)CC4)CC3)c21 (stereo partly shown) [I-291] | > 200 | < 10
Cc1ccc(-c2nn([C@H]3CC[C@H](CN(C)C4CCN(c5cccc6c5n(C)c(=O)n6C5CCC(=O)NC5=O)CC4)CC3)cc2NC(=O)c2cnn3cccnc23)nc1 (stereo partly shown) [I-292] | > 200 | < 10
Cc1ccc(-c2nn([C@H]3CC[C@H](CN(C)C4CCN(c5cccc6c5n(C)c(=O)n6C5CCC(=O)NC5=O)CC4)CC3)cc2NC(=O)c2cnn3cccnc23)c(F)c1 (stereo partly shown) [I-293] | > 200 | > 200
Cn1c(=O)n(C2CCC(=O)NC2=O)c2cccc(C#CCN3CCN(C[C@H]4CC[C@H](n5cc(NC(=O)c6cnn7ccc(N8CCSCC8)nc67)c(C(F)F)n5)CC4)CC3)c21 (stereo partly shown) [I-294] | > 200 | < 10
Cn1c(=O)n(C2CCC(=O)NC2=O)c2cccc(C#CCN3CCN(C[C@H]4CC[C@H](n5cc(NC(=O)c6cnn7ccc(N8CCS(=O)(=O)CC8)nc67)c(C(F)F)n5)CC4)CC3)c21 (stereo partly shown) [I-295] | > 200 | < 10
Cn1c(=O)n(C2CCC(=O)NC2=O)c2cccc(C#CCN3CCN(C[C@H]4CC[C@H](n5cc(NC(=O)c6cnn7ccc(N8CCC9(CC8)COC9)nc67)c(C(F)F)n5)CC4)CC3)c21 (stereo partly shown) [I-296] | 10 to 100 | > 200
CN1CC2(CCN(c3ccn4ncc(C(=O)Nc5cn([C@H]6CC[C@H](CN7CCN(CC#Cc8cccc9c8n(C)c(=O)n9C8CCC(=O)NC8=O)CC7)CC6)nc5C(F)F)c4n3)CC2)C1 (stereo partly shown) [I-297] | > 200 | > 200
Cn1c(=O)n(C2CCC(=O)NC2=O)c2cccc(C#CCN3CCN(C[C@H]4CC[C@H](n5cc(NC(=O)c6cnn7ccc(C8CCOCC8)nc67)c(C(F)F)n5)CC4)CC3)c21 (stereo partly shown) [I-298] | > 200 | < 10
Cn1c(=O)n(C2CCC(=O)NC2=O)c2cccc(C#CCN3CCN(C[C@H]4CC[C@H](n5cc(NC(=O)c6cnn7ccc(N8CCNCC8)nc67)c(C(F)F)n5)CC4)CC3)c21 (stereo partly shown) [I-299] | > 200 | < 10

SMILES | DC50 [1] [nM] | DC50 [2] [nM]
CN1CCN(c2ccn3ncc(C(=O)Nc4cn([C@H]5CC[C@H](CN6CCN(CC#Cc7cccc8c7n(C)c(=O)n8C7CCC(=O)NC7=O)CC6)CC5)nc4C(F)F)c3n2)CC1 (stereo partly shown) [I-300] | > 200 | < 10
Cn1c(=O)n(C2CCC(=O)NC2=O)c2cccc(C#CCN3CCN(C[C@H]4CC[C@H](n5cc(NC(=O)c6cnn7ccc(C8COCCN8)nc67)c(C(F)F)n5)CC4)CC3)c21 (stereo partly shown) [I-301] | > 200 | > 200
CN1CCOCC1c1ccn2ncc(C(=O)Nc3cn([C@H]4CC[C@H](CN5CCN(CC#Cc6cccc7c6n(C)c(=O)n7C6CCC(=O)NC6=O)CC5)CC4)nc3C(F)F)c2n1 (stereo partly shown) [I-302] | > 200 | > 200
Cn1c(=O)n(C2CCC(=O)NC2=O)c2cccc(C#CCOC3CCN(C[C@H]4CC[C@H](n5cc(NC(=O)c6cnn7ccc(N8CCSCC8)nc67)c(C(F)F)n5)CC4)CC3)c21 (stereo partly shown) [I-303] | > 200 | < 10
Cn1c(=O)n(C2CCC(=O)NC2=O)c2cccc(C#CCOC3CCN(C[C@H]4CC[C@H](n5cc(NC(=O)c6cnn7ccc(N8CCS(=O)(=O)CC8)nc67)c(C(F)F)n5)CC4)CC3)c21 (stereo partly shown) [I-304] | > 200 | < 10
Cn1c(=O)n(C2CCC(=O)NC2=O)c2cccc(C#CCOC3CCN(C[C@H]4CC[C@H](n5cc(NC(=O)c6cnn7ccc(N8CCC9(CC8)COC9)nc67)c(C(F)F)n5)CC4)CC3)c21 (stereo partly shown) [I-305] | > 200 | > 200
CN1CC2(CCN(c3ccn4ncc(C(=O)Nc5cn([C@H]6CC[C@H](CN7CCC(OCC#Cc8cccc9c8n(C)c(=O)n9C8CCC(=O)NC8=O)CC7)CC6)nc5C(F)F)c4n3)CC2)C1 (stereo partly shown) [I-306] | > 200 | > 200
Cn1c(=O)n(C2CCC(=O)NC2=O)c2cccc(C#CCOC3CCN(C[C@H]4CC[C@H](n5cc(NC(=O)c6cnn7ccc(C8CCOCC8)nc67)c(C(F)F)n5)CC4)CC3)c21 (stereo partly shown) [I-307] | > 200 | < 10
Cn1c(=O)n(C2CCC(=O)NC2=O)c2cccc(C#CCOC3CCN(C[C@H]4CC[C@H](n5cc(NC(=O)c6cnn7ccc(N8CCNCC8)nc67)c(C(F)F)n5)CC4)CC3)c21 (stereo partly shown) [I-308] | > 200 | < 10
CN1CCN(c2ccn3ncc(C(=O)Nc4cn([C@H]5CC[C@H](CN6CCC(OCC#Cc7cccc8c7n(C)c(=O)n8C7CCC(=O)NC7=O)CC6)CC5)nc4C(F)F)c3n2)CC1 (stereo partly shown) [I-309] | > 200 | < 10
Cn1c(=O)n(C2CCC(=O)NC2=O)c2cccc(C#CCOC3CCN(C[C@H]4CC[C@H](n5cc(NC(=O)c6cnn7ccc(C8COCCN8)nc67)c(C(F)F)n5)CC4)CC3)c21 (stereo partly shown) [I-310] | > 200 | > 200
CN1CCOCC1c1ccn2ncc(C(=O)Nc3cn([C@H]4CC[C@H](CN5CCC(OCC#Cc6cccc7c6n(C)c(=O)n7C6CCC(=O)NC6=O)CC5)CC4)nc3C(F)F)c2n1 (stereo partly shown) [I-311] | > 200 | > 200
Cn1c(=O)n(C2CCC(=O)NC2=O)c2cccc(N3CCC(N(CC(F)F)C[C@H]4CC[C@H](n5cc(NC(=O)c6cnn7cccnc67)c(C(F)F)n5)CC4)CC3)c21 (stereo partly shown) [I-312] | > 200 | > 200
Cn1c(=O)n(C2CCC(=O)NC2=O)c2cccc(N3CCC(N(CC(F)(F)F)C[C@H]4CC[C@H](n5cc(NC(=O)c6cnn7cccnc67)c(C(F)F)n5)CC4)CC3)c21 (stereo partly shown) [I-313] | > 200 | > 200
CN(Cc1ccc(-n2cc(NC(=O)c3cnn4cccnc34)c(C(F)F)n2)cc1)C1CCN(c2cccc3c2n(C)c(=O)n3C2CCC(=O)NC2=O)CC1 (stereo not shown) [I-314] | > 200 | > 200
Cn1c(=O)n(C2CCC(=O)NC2=O)c2cccc(C#CCN3CCN(C[C@H]4CC[C@H](n5cc(NC(=O)c6cnn7ccc(N8CC9(COC9)C8)nc67)c(C(F)F)n5)CC4)CC3)c21 (stereo partly shown) [I-315] | > 200 | < 10
Cn1c(=O)n(C2CCC(=O)NC2=O)c2cccc(C#CCN3CCN(C[C@H]4CC[C@H](n5cc(NC(=O)c6cnn7ccc(N8CC9(CCOCC9)C8)nc67)c(C(F)F)n5)CC4)CC3)c21 (stereo partly shown) [I-316] | > 200 | 10 to 100
Cn1c(=O)n(C2CCC(=O)NC2=O)c2cccc(C#CCN3CCN(C[C@H]4CC[C@H](n5cc(NC(=O)c6cnn7ccc(N8CC9(CCOC9)C8)nc67)c(C(F)F)n5)CC4)CC3)c21 (stereo partly shown) [I-317] | > 200 | > 200
Cn1c(=O)n(C2CCC(=O)NC2=O)c2cccc(C#CCN3CCN(C[C@H]4CC[C@H](n5cc(NC(=O)c6cnn7ccc(N8CC9(CCCOC9)C8)nc67)c(C(F)F)n5)CC4)CC3)c21 (stereo partly shown) [I-318] | 10 to 100 | > 200

Reference: US12091411B2, “IRAK degraders and uses thereof” (Kymera Therapeutics, Inc., priority 2022, dated 2024)
